Experimental data: ChEMBL document CHEMBL4251736, “Discovery of Novel Diarylpyrimidine Derivatives as Potent HIV-1 NNRTIs Targeting the "NNRTI Adjacent" Binding Site” (ACS Med Chem Lett, 2018)
Calls of active or inactive are those of the source. The rule behind the calls is not given here.

Experiments:
[1] = tested on: Human immunodeficiency virus 1; assay: Antiviral activity against HIV1 harboring reverse transcriptase Y181C mutant infected in human MT4 cells assessed as inhibition of viral replication after 5 days by MTT assay; type: functional, organism-based; conditions: Human immunodeficiency virus 1, MT4, 120 h
[2] = tested on: Human immunodeficiency virus 1; assay: Antiviral activity against HIV1 harboring reverse transcriptase L100I mutant infected in human MT4 cells assessed as inhibition of viral replication after 5 days by MTT assay; type: functional, organism-based; conditions: Human immunodeficiency virus 1, MT4, 120 h
[3] = tested on: Human immunodeficiency virus 1; assay: Antiviral activity against HIV1 harboring reverse transcriptase E138K mutant infected in human MT4 cells assessed as inhibition of viral replication after 5 days by MTT assay; type: functional, organism-based; conditions: for EC50: Human immunodeficiency virus 1, MT4, 120 h
[4] = tested on: Human immunodeficiency virus 1; assay: Antiviral activity against wild type HIV1 3B infected in human MT4 cells assessed as inhibition of virus-induced cytopathic effect after 5 days by MTT assay; type: functional, organism-based; conditions: Human immunodeficiency virus 1, 3B, MT4, 120 h
[5] = molecular target: Human immunodeficiency virus type 1 reverse transcriptase (Human immunodeficiency virus 1, UniProt Q72547); assay: Inhibition of recombinant wild type HIV1 reverse transcriptase assessed as decrease in biotin-dUTP incorporation using DIG-labeled dUTP/biotin-labeled dUTP and dTTP as template and viral nucleotides after 1 hr by ELISA
[6] = Cytotoxicity against human MT4 cells assessed as decrease in cell viability after 5 days by MTT assay; type: cell-based
[7] = tested on: Human immunodeficiency virus 2; assay: Antiviral activity against HIV2 ROD infected in human MT4 cells assessed as inhibition of virus-induced cytopathic effect after 5 days by MTT assay; type: functional, organism-based; conditions: ISOLATE ROD
[8] = Selectivity index, ratio of CC50 for human MT4 cells to EC50 for wild type HIV1 3B; type: toxicity; conditions: read-out: Ratio CC50/EC50
[9] = tested on: Human immunodeficiency virus 1; assay: Antiviral activity against HIV1 harboring reverse transcriptase K103N mutant infected in human MT4 cells assessed as inhibition of viral replication after 5 days by MTT assay; type: functional, organism-based; conditions: Human immunodeficiency virus 1, MT4, 120 h
[10] = tested on: Human immunodeficiency virus 1; assay: Potency index, ratio of etravirine EC50 to compound EC50 for HIV1 harboring reverse transcriptase K103N mutant infected in human MT4 cells; type: functional
[11] = tested on: Human immunodeficiency virus 1; assay: Fold resistance, ratio of EC50 for HIV1 harboring reverse transcriptase K103N mutant infected in human MT4 cells to EC50 for wild type HIV1 3B infected in human MT4 cells; type: functional
[12] = tested on: Human immunodeficiency virus 1; assay: Antiviral activity against HIV1 RES056 harboring reverse transcriptase K103N/Y181C double mutant infected in human MT4 cells assessed as inhibition of viral replication after 5 days by MTT assay; type: functional, organism-based; conditions: Human immunodeficiency virus 1, RES056, MT4, 120 h
[13] = tested on: Human immunodeficiency virus 1; assay: Antiviral activity against HIV1 harboring reverse transcriptase Y188L mutant infected in human MT4 cells assessed as inhibition of viral replication after 5 days by MTT assay; type: functional, organism-based
[14] = tested on: Human immunodeficiency virus 1; assay: Potency index, ratio of etravirine EC50 to compound EC50 for wild type HIV1 3B infected in human MT4 cells; type: functional
[15] = tested on: Human immunodeficiency virus 1; assay: Antiviral activity against HIV1 harboring reverse transcriptase F227L/V106A double mutant infected in human MT4 cells assessed as inhibition of viral replication after 5 days by MTT assay; type: functional, organism-based; conditions: Human immunodeficiency virus 1, MT4, 120 h
[16] = tested on: Human immunodeficiency virus 1; assay: Potency index, ratio of etravirine EC50 to compound EC50 for HIV1 harboring reverse transcriptase Y181C mutant infected in human MT4 cells; type: functional
[17] = tested on: Human immunodeficiency virus 1; assay: Potency index, ratio of etravirine EC50 to compound EC50 for HIV1 harboring reverse transcriptase L100I mutant infected in human MT4 cells; type: functional
[18] = tested on: Human immunodeficiency virus 1; assay: Potency index, ratio of etravirine EC50 to compound EC50 for HIV1 harboring reverse transcriptase E138K mutant infected in human MT4 cells; type: functional
[19] = tested on: Human immunodeficiency virus 1; assay: Potency index, ratio of etravirine EC50 to compound EC50 for HIV1 harboring reverse transcriptase Y188L mutant infected in human MT4 cells; type: functional

| SMILES | EC50 [3] | EC50 [4] | IC50 [5] | CC50 at 120 h [6] | inhibition [7] | selectivity ratio [8] | EC50 [9] | also measured |
| --- | --- | --- | --- | --- | --- | --- | --- | --- |
| Cc1cn([C@H]2C[C@H](N=[N+]=[N-])[C@@H](CO)O2)c(=O)[nH]c1=O [ZIDOVUDINE] | 38.6 nM |  |  |  |  |  |  | EC50 [1]: 14.1 nM; EC50 [2]: 8.3 nM |
| COC(=O)CSc1cnc(Nc2ccc(C#N)cc2)nc1Oc1c(C)cc(C#N)cc1C |  | 65.9 nM | 13 to 863 nM | 5100 to 149000 nM | inactive | 152 to 15400 |  |  |
| C=CCNC(=O)CSc1cnc(Nc2ccc(C#N)cc2)nc1Oc1c(C)cc(C#N)cc1C | 6 to 34.7 nM | 2.4 to 3.8 nM | 13 to 863 nM | 5100 to 149000 nM | inactive | 152 to 15400 | 1.4 to 8.3 nM | Ratio EC50 [10]: 1.3 - 2.3 |
| Cc1cc(C#N)cc(C)c1Oc1nc(Nc2ccc(C#N)cc2)ncc1SCC(=O)NCc1ccc(O)cc1 | 6 to 34.7 nM | < 10 nM | 13 to 863 nM | 5100 to 149000 nM | inactive | 152 to 15400 | 1.4 to 8.3 nM |  |
| COC(=O)CCS(=O)(=O)c1cnc(Nc2ccc(C#N)cc2)nc1Oc1c(C)cc(C#N)cc1C |  | 1560 nM | 13 to 863 nM | 5100 to 149000 nM | inactive | 9 |  |  |
| Cc1cc(C#N)cc(C)c1Oc1nc(Nc2ccc(C#N)cc2)ncc1SCC(=O)NCC1CC1 |  | 3.8 nM | 13 to 863 nM | 5100 to 149000 nM | inactive | 152 to 15400 |  |  |
| Cc1cc(C#N)cc(C)c1Oc1nc(Nc2ccc(C#N)cc2)ncc1SCC(=O)NCCN1CCOCC1 | 6 to 34.7 nM | 2.6 to 6.2 nM | 13 to 863 nM | 5100 to 149000 nM | inactive | 152 to 15400 | 1.4 to 8.3 nM | Ratio EC50 [10]: 1.3 - 2.3 |
| Cc1cc(C#N)cc(C)c1Oc1nc(Nc2ccc(C#N)cc2)ncc1SCC(=O)NCC1CCCO1 (stereo unspecified) | 6 to 34.7 nM | < 10 nM | 13 to 863 nM | 5100 to 149000 nM | inactive | 152 to 15400 | 1.4 to 8.3 nM |  |
| Cc1cc(C#N)cc(C)c1Oc1nc(Nc2ccc(C#N)cc2)ncc1SCC(=O)N1CCSCC1 | 6 to 157 nM | 38.3 nM | 13 to 863 nM | 5100 to 149000 nM | inactive | 152 to 15400 | 1.4 to 44.9 nM | Ratio EC50 [11]: 0.4 - 1.9 |
| C#CCNC(=O)CSc1cnc(Nc2ccc(C#N)cc2)nc1Oc1c(C)cc(C#N)cc1C | 6 to 34.7 nM | 2.4 nM | 23 nM | 5100 to 149000 nM | inactive | 152 to 15400 | 1.4 to 8.3 nM | EC50 [12]: > 100 nM; inhibition [13]: Active; Ratio EC50 [14]: 1.6; Ratio EC50 [10]: 1.3 - 2.3; EC50 [1]: 11.1 to 13.8 nM; EC50 [2]: 7.7 nM; EC50 [15]: > 100 nM |
| COC(=O)CS(=O)(=O)c1cnc(Nc2ccc(C#N)cc2)nc1Oc1c(C)cc(C#N)cc1C |  | 68.8 nM | 13 to 863 nM | 5100 to 149000 nM | inactive | 152 to 15400 |  |  |
| Cc1cc(C#N)cc(C)c1Oc1nc(Nc2ccc(C#N)cc2)ncc1SCC(=O)N1CCN(C(=O)OC(C)(C)C)CC1 |  | 88.5 nM | 13 to 863 nM | 5100 to 149000 nM | inactive | 152 to 15400 |  |  |
| Cc1cc(C#N)cc(C)c1Oc1nc(Nc2ccc(C#N)cc2)ncc1SCC(N)=O | 6 to 34.7 nM | 2.4 to 216 nM | 13 to 863 nM | 5100 to 149000 nM | inactive | 152 to 15400 | 1.4 to 44.9 nM | Ratio EC50 [11]: 0.4 - 1.9 |
| Cc1cc(C#N)cc(C)c1Oc1nc(Nc2ccc(C#N)cc2)ncc1SCC(=O)Nc1ccc(S(C)(=O)=O)cc1 | 6 to 34.7 nM | < 10 nM | 13 to 863 nM | 5100 to 149000 nM | inactive | 152 to 15400 | 1.4 to 8.3 nM |  |
| Cc1cc(C#N)cc(C)c1Oc1nc(Nc2ccc(C#N)cc2)ncc1SCC(=O)C(=O)O |  | 2.4 to 216 nM | 13 to 863 nM | 5100 to 149000 nM | inactive | 152 to 15400 |  |  |
| Cc1cc(C#N)cc(C)c1Oc1nc(Nc2ccc(C#N)cc2)ncc1SCC(=O)NC1CCN(C(=O)OC(C)(C)C)CC1 | 6 to 157 nM | < 10 nM | 13 to 863 nM | 5100 to 149000 nM | inactive | 152 to 15400 | 1.4 to 44.9 nM | Ratio EC50 [11]: 0.4 - 1.9 |
| COC(=O)CCSc1cnc(Nc2ccc(C#N)cc2)nc1Oc1c(C)cc(C#N)cc1C |  | 60.2 nM | 13 to 863 nM | 5100 to 149000 nM | inactive | 152 to 15400 |  |  |
| Cc1cc(C#N)cc(C)c1Oc1nc(Nc2ccc(C#N)cc2)ncc1SCC(=O)NCCCN1CCOCC1 | 6 nM | 2.6 nM | 84 to 86 nM | 27200 nM | inactive | 10000 | 1.4 nM | EC50 [12]: > 100 nM; Ratio EC50 [16]: 1.5 - 3; EC50 ([13]; Human immunodeficiency virus 1, MT4, 120 h): 16.2 nM; Ratio EC50 [17]: 1.5 - 3; Ratio EC50 [14]: 1.5; Ratio EC50 [10]: 1.5 - 3; EC50 [1]: 11.6 nM; Ratio EC50 [18]: 1.5 - 3; EC50 [2]: 6.5 nM; Ratio EC50 [19]: 1.5 - 3; EC50 [15]: > 100 nM |
| COCCNC(=O)CSc1cnc(Nc2ccc(C#N)cc2)nc1Oc1c(C)cc(C#N)cc1C | 6 to 34.7 nM | 3.8 nM | 26 nM | 5100 to 149000 nM | inactive | 152 to 15400 | 1.4 to 8.3 nM | EC50 [12]: > 100 nM; inhibition [13]: Active; Ratio EC50 [10]: 1.3 - 2.3; EC50 [15]: > 100 nM |
| Cc1cc(C#N)cc(C)c1Oc1nc(Nc2ccc(C#N)cc2)ncc1SCC(=O)NCCN1CCN(C(=O)OC(C)(C)C)CC1 | 6 to 157 nM | 32.6 nM | 13 to 863 nM | 5100 to 149000 nM | inactive | 152 to 15400 | 1.4 to 44.9 nM | Ratio EC50 [11]: 0.4 - 1.9 |
| Cc1cc(C#N)cc(C)c1Oc1nc(Nc2ccc(C#N)cc2)ncc1SCC(=O)N1CC[C@H](NC(=O)OC(C)(C)C)C1 |  | 33.9 nM | 13 to 863 nM | 5100 to 149000 nM | inactive | 152 to 15400 |  |  |
| Cc1cc(C#N)cc(C)c1Oc1nc(Nc2ccc(C#N)cc2)ncc1SCC(=O)NC1CC1 | 6 to 34.7 nM | 2.4 nM | 21 nM | 5100 to 149000 nM | inactive | 152 to 15400 | 1.4 to 8.3 nM | EC50 [12]: > 100 nM; inhibition [13]: Active; Ratio EC50 [14]: 1.6; Ratio EC50 [10]: 1.3 - 2.3; EC50 [1]: 11.1 to 13.8 nM; EC50 [15]: > 100 nM |
| Cc1ccnc2c1NC(=O)c1cccnc1N2C1CC1 |  |  |  |  |  |  |  | inhibition [3]: Active |
| O=C1Nc2ccc(Cl)cc2[C@@](C#CC2CC2)(C(F)(F)F)O1 [EFAVIRENZ] |  |  |  |  |  |  | 81 nM |  |
